ChEMBL document CHEMBL3507680, “University of Dundee, Gates Library screen for HepG2 cell viability”

Experiment: Human HepG2 cell viability assay in 384 well format
Assay type: toxicity, cell-based
Set-up: dose 125 nL, time 70.5 hour; concentration not given beside the values
Conditions: HepG2 cells, read-out: Inhibition

## CN(C)C(=O)C1CCc2nnc(CNC(=O)c3ccc(Cl)cc3Cl)n21 (stereo unspecified)
  cytotoxicity at 70.5 h: 2.11%

## O=C(O)[C@@H]1CN(C(=O)CSCC2CC2)C[C@H]1c1ccccn1
  cytotoxicity at 70.5 h: -1.99%

## CCN1CCC(Cn2ccc3ccc(C(=O)OC)cc3c2=O)C1 (stereo unspecified)
  cytotoxicity at 70.5 h: -6.6%

## CCC(Nc1ncccn1)c1cccnc1 (stereo unspecified)
  cytotoxicity at 70.5 h: 8.36%

## O=C(NC1CCCc2c1[nH]c1ccc(F)cc21)c1n[nH]c2c1CCCC2 (stereo unspecified)
  cytotoxicity at 70.5 h: 27%

## Cc1ccc(CNC(=O)c2ccc(CNS(C)(=O)=O)o2)cc1F
  cytotoxicity at 70.5 h: 17.8%

## Cc1ccc(N2CCC3(CCN(C(=O)c4ccsc4)CC3)CC2)nn1
  cytotoxicity at 70.5 h: -7.09%

## CN(C)CCCN(Cc1cnn(C)c1)Cc1ccco1
  cytotoxicity at 70.5 h: -2.57%

## COc1ccc(N2CCCC3(C2)CN(c2nncs2)CCO3)cc1 (stereo unspecified)
  cytotoxicity at 70.5 h: 1.09%

## CN(CCO)Cc1nnc(C2CCN(C(=O)c3ccccn3)CC2)n1C
  cytotoxicity at 70.5 h: 1.55%

## CC[C@@H](C)[C@@H](N)C(=O)Nc1cccc(-c2cnc(N)nc2)c1
  cytotoxicity at 70.5 h: -6%

## Cc1cccn2c(CC(=O)N3CCC(CCn4cccn4)CC3)cnc12
  cytotoxicity at 70.5 h: 13.1%

## Cc1ccc(CN2C[C@@H](C(=O)O)[C@H](c3ccccn3)C2)o1
  cytotoxicity at 70.5 h: 17.9%

## CC(C)OCCNC1(c2ccc(Cl)cc2)CCOCC1
  cytotoxicity at 70.5 h: -0.58%

## CN(C)CC(=O)NC1CC(=O)N(CCc2ccccc2)C1 (stereo unspecified)
  cytotoxicity at 70.5 h: -4.7%

## O=C(Cc1ccc2c(c1)CCO2)N1CCCCC1Cn1cccn1 (stereo unspecified)
  cytotoxicity at 70.5 h: -2.84%

## CC(Nc1cccc(Oc2ccc(C#N)cn2)c1)C(=O)NC1CC1 (stereo unspecified)
  cytotoxicity at 70.5 h: -6.13%

## Cc1cc(CNC(=O)NCc2cccs2)ccc1S(C)(=O)=O
  cytotoxicity at 70.5 h: -8.79%

## O=C(Nc1cc(C2CCOCC2)[nH]n1)c1cc[nH]n1
  cytotoxicity at 70.5 h: -4.17%

## Cc1cncnc1C1CCN(CC(N)=O)CC1
  cytotoxicity at 70.5 h: -4.96%

## c1csc(CNc2ccccc2Cn2cncn2)c1
  cytotoxicity at 70.5 h: 7.58%

## COc1ccc2nc(CNC(=O)c3cc(C(C)C)on3)[nH]c2c1
  cytotoxicity at 70.5 h: -14.8%

## CN(C)CC(=O)N1CC2(CCN(S(=O)(=O)c3ccccc3)C2)C1
  cytotoxicity at 70.5 h: -6.71%

## Cc1c(F)cccc1S(=O)(=O)NC(C)(C)CN
  cytotoxicity at 70.5 h: -3.29%

## Cc1nc(CN2CCOCC3(CCN(c4ncccn4)CC3)C2)cs1
  cytotoxicity at 70.5 h: -97.5%

## Cc1cc(CN2C[C@@H]3COC[C@]3(c3nnc(C)o3)C2)no1
  cytotoxicity at 70.5 h: 16.2%

## CCCc1cnc(C)nc1N1CCC(F)(F)CC1
  cytotoxicity at 70.5 h: -9.65%

## CC(C)c1cc(NC(CO)CO)n2nccc2n1
  cytotoxicity at 70.5 h: -10.2%

## CC(C)NC(=O)CC(C)NC(=O)N(C)Cc1cc(Cl)cn1C (stereo unspecified)
  cytotoxicity at 70.5 h: -8.56%

## O=C(c1ccc2c(c1)OCO2)N1C[C@@H](CN2CCCCC2)[C@@H](CO)C1
  cytotoxicity at 70.5 h: -0.201%

## Clc1cc(N2CCC(N3CCCC3)CC2)nc2[nH]ccc12
  cytotoxicity at 70.5 h: -2.57%

## COc1ccccc1C(=O)NS(=O)(=O)c1cccc(C#N)c1
  cytotoxicity at 70.5 h: -7.53%

## Cc1cc(C)n(-c2ccc(C(=O)NCC(CO)Cc3cccs3)cc2)n1 (stereo unspecified)
  cytotoxicity at 70.5 h: -8%

## CCOc1ccccc1CC(=O)N1C[C@@H](C(=O)O)[C@H](C2CC2)C1
  cytotoxicity at 70.5 h: -1.88%

## CCc1nnc(CN2CCC(C3CCCCCN3C(C)=O)CC2)o1 (stereo unspecified)
  cytotoxicity at 70.5 h: 8.88%

## Cc1cc(C(=O)NC2CCN(CC(N)=O)CC2)nn1C(C)(C)C
  cytotoxicity at 70.5 h: -18.9%

## CCc1csc(C2CCCN(C(=O)c3ccc(OC)nn3)C2)n1 (stereo unspecified)
  cytotoxicity at 70.5 h: -9.56%

## CN(C)c1ccc(CN2C[C@H]3CC[C@@H]2CN(C2CCOCC2)C3)cn1
  cytotoxicity at 70.5 h: -3.42%

## CC(C)C(=O)N1CC[C@@H]2[C@H](CC1)N(Cc1cccnc1)CCS2(=O)=O
  cytotoxicity at 70.5 h: 2.07%

## Cc1ccc2nc3n(c2c1)[C@@H](CNCc1nccs1)COC3
  cytotoxicity at 70.5 h: -5.06%

## C=C(C)CN1CCCC1c1nc(Cc2ccc(F)cc2)no1 (stereo unspecified)
  cytotoxicity at 70.5 h: 12.4%

## COc1ccccc1/C=C/CNCC1CCc2nncn2C1 (stereo unspecified)
  cytotoxicity at 70.5 h: 8.27%

## COCCN1CCC2(CCC1=O)CN(C1CCOCC1)CCN2C (stereo unspecified)
  cytotoxicity at 70.5 h: -10.7%

## O=C(c1cscn1)N1CCC2(CCN(Cc3nccs3)CC2)CC1
  cytotoxicity at 70.5 h: -14.7%

## Cc1ccc(OCCCNC(=O)NC(C)c2nncn2C)cc1 (stereo unspecified)
  cytotoxicity at 70.5 h: -3.66%

## COc1ccccc1CNC(=O)Cn1nc(-c2ccc(F)cc2)oc1=O
  cytotoxicity at 70.5 h: 10.9%

## CCC(C)N(Cc1ccsc1)C(=O)c1ccc2[nH]nnc2c1 (stereo unspecified)
  cytotoxicity at 70.5 h: 24.9%

## CC(C)n1ccnc1CN1CCCN(C(=O)c2cnc[nH]2)CC1
  cytotoxicity at 70.5 h: -1.35%

## COc1ccc(-n2nnc(C(N)=O)n2)cc1
  cytotoxicity at 70.5 h: -7.17%

## CS(=O)(=O)N1CCOCC2(CCN(c3ccccn3)C2)C1 (stereo unspecified)
  cytotoxicity at 70.5 h: -10.4%

## CCNc1cc2c(nn1)CCN(C(=O)c1ccnc(-n3ccnc3)c1)C2
  cytotoxicity at 70.5 h: -6.16%

## Cc1cc(C)n(C2CN(c3ncnc4c3CCC4)C2)n1
  cytotoxicity at 70.5 h: -10.3%

## CC[C@@H](NC(C)=O)C(=O)NCc1cccnc1Oc1ccccc1OC
  cytotoxicity at 70.5 h: 8.31%

## c1ccc2c(c1)CCN(c1nc(-c3ccncc3)nc3c1CCNC3)C2
  cytotoxicity at 70.5 h: 23.9%

## COCCN(C)CCN1CC2(CCN(C3CCSC3)CC2)OC1=O (stereo unspecified)
  cytotoxicity at 70.5 h: -4.49%

## CN(C(=O)c1ccccc1Cl)C1CCN(c2ccccn2)CC1
  cytotoxicity at 70.5 h: -3.26%
